Structures can show the parent of a compound that is named as a salt.
Assays:
[1] = Metabolic stability in human liver microsomes, unbound intrinsic clearance (Cl int/fu mic); format: in vitro ADME; settings: 0.5 μM compound, NADPH; for CLint scaled at 0.5 μM: human, liver microsomes, pH 7.4, human liver microsomes 0.25 mg/mL, read-out: Cl int, mic unb. (h) [l/h/kg] (unbound intrinsic clearance, human); for Cl int, mic unb. (h) [l/h/kg] (unbound intrinsic clearance, human): human liver microsomes 0.25 mg/mL
Method in brief: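 Unbound intrinsic clearance is CLint divided by fu mic, with the unbound fraction measured by 4 h HTDialysis at 37 °C of 0.25 mg/ml microsomes spiked with 0.5 µM compound. For CLint, 0.5 µM compound was incubated with 0.25 mg/mL human microsomes and 1.0 mM NADPH (pH 7.4, 37 °C). Substrate loss over 30 min was measured by LC-MS/MS and t1/2 assumed first-order kinetics.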

[2] = target: T1, 5-HT2C receptor (Homo sapiens, UniProt P28335); assay: Human 5-HT2C functional assay (beta-arrestin2 recruitment, U2OS_HTR2C_β-Arrestin cells); format: cell-based; settings: for EC50: beta-arrestin2 recruitment, U2OS_HTR2C_β-Arrestin cells, 1.5 h incubation, read-out: EC50 5-HT2C (potency in functional assay); for Emax / % efficacy: relative efficacy vs response to 10 μM 5-HT or maximal 5-HT effect (100%)
T1 construct: host or cells: U2OS
T1 sequence (P28335 33-458): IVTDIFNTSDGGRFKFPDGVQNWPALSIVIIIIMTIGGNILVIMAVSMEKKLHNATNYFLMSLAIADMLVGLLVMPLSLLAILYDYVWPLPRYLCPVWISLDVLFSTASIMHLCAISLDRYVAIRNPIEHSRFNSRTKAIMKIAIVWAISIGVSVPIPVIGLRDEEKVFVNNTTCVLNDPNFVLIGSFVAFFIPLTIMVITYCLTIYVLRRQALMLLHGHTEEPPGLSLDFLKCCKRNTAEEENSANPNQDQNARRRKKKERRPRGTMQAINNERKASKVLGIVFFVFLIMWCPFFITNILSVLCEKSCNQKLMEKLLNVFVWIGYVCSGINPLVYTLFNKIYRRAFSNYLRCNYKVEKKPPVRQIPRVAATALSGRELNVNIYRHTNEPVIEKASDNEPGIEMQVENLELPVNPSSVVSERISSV
T1 sequence (P32121 whole entry partner): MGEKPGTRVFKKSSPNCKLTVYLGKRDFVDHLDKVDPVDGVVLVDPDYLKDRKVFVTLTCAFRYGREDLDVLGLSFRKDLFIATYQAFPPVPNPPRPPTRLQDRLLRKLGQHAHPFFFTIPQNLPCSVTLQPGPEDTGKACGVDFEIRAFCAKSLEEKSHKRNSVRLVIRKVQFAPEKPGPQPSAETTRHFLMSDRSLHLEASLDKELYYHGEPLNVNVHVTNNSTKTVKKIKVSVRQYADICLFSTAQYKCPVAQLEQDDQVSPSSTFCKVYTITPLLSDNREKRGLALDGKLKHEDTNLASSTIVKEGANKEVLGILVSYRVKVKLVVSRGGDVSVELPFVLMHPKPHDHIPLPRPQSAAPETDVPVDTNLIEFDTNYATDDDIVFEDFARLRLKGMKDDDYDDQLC
Method in brief: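 EC50 and relative efficacy came from 4-parameter variable-slope fits, normalised to 10 µM 5-HT or maximal 5-HT response (100%). Luminescent β-galactosidase enzyme-complementation signal was read after 1.5 h compound exposure in U2OS_HTR2C_β-Arrestin cells held in 1% serum medium from the prior day.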

SMILES	CLint scaled at 0.5 μM [1] [L/h/kg]	EC50 [2] [nM]	Emax [2] [%]	Cl int, mic unb. (h) [l/h/kg] (unbound intrinsic clearance, human) [1]	% efficacy [2]
COc1nc(N2CCc3ccccc32)c(F)cc1CNC(=O)[C@@H]1CCCN1 [Example 138, (2S)—N-[(5-Fluoro-6-indolin-1-yl-2-methoxy-3-pyridyl)methyl]pyrrolidine-2-carboxamide Hydrochloride]	5 to 50	200 to 1000	> 70		
COc1nc(C2CC2C(F)(F)F)c(F)cc1CNC(=O)[C@@H]1CCCN1 (stereo partly drawn) [Example 139, (2S)—N-[[5-fluoro-2-methoxy-6-[2-(trifluoromethyl)cyclopropyl]-3-pyridyl]methyl]pyrrolidine-2-carboxamide; 2,2,2-trifluoroacetic Acid]	5 to 50	200 to 1000	30 to 50		
COc1nc(C2=CCC(C(F)(F)F)CC2)c(F)cc1CNC(=O)[C@@H]1CCCN1 (stereo partly drawn) [Example 140, (2S)—N-[[5-Fluoro-2-methoxy-6-[4-(trifluoromethyl)cyclohexen-1-yl]-3-pyridyl]methyl]pyrrolidine-2-carboxamide]	5 to 50	< 20	> 70		
COc1nc(N[C@H]2CC[C@@H](C(F)(F)F)CC2)c(F)cc1CNC(=O)[C@@H]1CCCN1 [Example 141, (2S)—N-[[5-Fluoro-2-methoxy-6-[[cis-4-(trifluoromethyl)cyclohexyl]amino]-3-pyridyl]methyl]pyrrolidine-2-carboxamide]		< 20	> 70	+ (from 50 to 500 l/h/kg)	
COc1nc(N[C@H]2CC[C@@H](C(F)(F)F)CC2)c(F)cc1CNC(=O)[C@@H]1CCCN1.Cl [Example 142, (2S)—N-[[5-Fluoro-2-methoxy-6-[[cis-4-(trifluoromethyl)cyclohexyl]amino]-3-pyridyl]methyl]pyrrolidine-2-carboxamide Hydrochloride]		< 20		++ (from 5 to <50 l/h/kg)	+++ (>70%)
COc1nc(N[C@H]2CC[C@H](C(F)(F)F)CC2)c(F)cc1CNC(=O)[C@@H]1CCCN1 [Example 143, (2S)—N-[[5-Fluoro-2-methoxy-6-[[trans-4-(trifluoromethyl)cyclohexyl]amino]-3-pyridyl]methyl]pyrrolidine-2-carboxamide]		< 20	> 70	+ (from 50 to 500 l/h/kg)	
COc1nc(N[C@H]2CC[C@H](C(F)(F)F)CC2)c(F)cc1CNC(=O)[C@@H]1CCCN1.Cl [Example 144, (2S)—N-[[5-Fluoro-2-methoxy-6-[[trans-4-(trifluoromethyl)cyclohexyl]amino]-3-pyridyl]methyl]pyrrolidine-2-carboxamide Hydrochloride]		20 to 200		++ (from 5 to <50 l/h/kg)	+++ (>70%)
COc1nc(Cc2ccccc2)c(F)cc1CNC(=O)[C@@H]1CCCN1 [Example 145, (2S)—N-[(6-Benzyl-5-fluoro-2-methoxy-3-pyridyl)methyl]pyrrolidine-2-carboxamide]	< 5	< 20	> 70		
COc1nc(NC2CCC2)c(F)cc1CNC(=O)[C@@H]1CCCN1 [Example 146, (2S)—N-[[6-(Cyclobutylamino)-5-fluoro-2-methoxy-3-pyridyl]methyl]pyrrolidine-2-carboxamide; 2,2,2-trifluoroacetic Acid]	< 5	20 to 200	> 70		
COc1nc(N(C)C2CC2)c(F)cc1CNC(=O)[C@@H]1CCCN1 [Example 147, (2S)—N-[[6-[N-Cyclopropyl-N-methyl-amino]-5-fluoro-2-methoxy-3-pyridyl]methyl]pyrrolidine-2-carboxamide; 2,2,2-trifluoroacetic Acid]	5 to 50	200 to 1000	50 to 70		
C=CCN(Cc1ccccc1)c1nc(OC)c(CNC(=O)[C@@H]2CCCN2)cc1F [Example 150, (2S)—N-[[6-[N-Allyl-N-benzyl-amino]-5-fluoro-2-methoxy-3-pyridyl]methyl]-pyrrolidine-2-carboxamide Hydrochloride]	5 to 50	20 to 200	> 70		
COc1nc(N2CC(Oc3ccc(Cl)cc3)C2)c(F)cc1CNC(=O)[C@@H]1CCCN1 [Example 151, (2S)—N-[[6-[3-(4-Chlorophenoxy)azetidin-1-yl]-5-fluoro-2-methoxy-3-pyridyl]methyl]pyrrolidine-2-carboxamide; 2,2,2-trifluoroacetic Acid]	50 to 500	200 to 1000	> 70		
COc1nc(NCC2(C(F)(F)F)CC2)c(F)cc1CNC(=O)[C@@H]1CCCN1 [Example 152, (2S)—N-[[5-Fluoro-2-methoxy-6-[[1-(trifluoromethyl)cyclopropyl]methylamino]-3-pyridyl]methyl]pyrrolidine-2-carboxamide; 2,2,2-trifluoroacetic Acid]	< 5	< 20	> 70		
COc1nc(N2CCCC(C(F)(F)F)C2)c(F)cc1CNC(=O)[C@@H]1CCCN1 (stereo partly drawn) [Example 153, (2S)—N-[[5-Fluoro-2-methoxy-6-[3-(trifluoromethyl)-1-piperidyl]-3-pyridyl]methyl]pyrrolidine-2-carboxamide; 2,2,2-trifluoroacetic Acid]	5 to 50	20 to 200	> 70		
COc1nc(N(C)C2CCC(F)(F)CC2)c(F)cc1CNC(=O)[C@@H]1CCCN1 [Example 154, (2S)—N-[[6-[N-(4,4-Difluorocyclohexyl)-N-methyl-amino]-5-fluoro-2-methoxy-3-pyridyl]methyl]pyrrolidine-2-carboxamide; 2,2,2-trifluoroacetic Acid]	5 to 50	20 to 200	> 70		
COc1nc(N2CCCCCC2)c(F)cc1CNC(=O)[C@@H]1CCCN1 [Example 155, (2S)—N-[[6-(Azepan-1-yl)-5-fluoro-2-methoxy-3-pyridyl]methyl]pyrrolidine-2-carboxamide; 2,2,2-trifluoroacetic Acid]	5 to 50	20 to 200	> 70		
COc1nc(N2CCCC(F)(F)C2)c(F)cc1CNC(=O)[C@@H]1CCCN1 [Example 156, (2S)—N-[[6-(3,3-Difluoro-1-piperidyl)-5-fluoro-2-methoxy-3-pyridyl]methyl]-pyrrolidine-2-carboxamide; 2,2,2-trifluoroacetic Acid]	< 5	20 to 200	50 to 70		
COc1nc(C2CCCOC2)c(F)cc1CNC(=O)[C@@H]1CCCN1 (stereo partly drawn) [Example 158, (2S)—N-[(5-Fluoro-2-methoxy-6-tetrahydropyran-3-yl-3-pyridyl)methyl]-pyrrolidine-2-carboxamide Hydrochloride]	< 5	20 to 200	> 70		
COc1nc(C2CCOCC2)c(F)cc1CNC(=O)[C@@H]1CCCN1 [Example 159, (2S)—N-[(5-Fluoro-2-methoxy-6-tetrahydropyran-4-yl-3-pyridyl)methyl]-pyrrolidine-2-carboxamide Hydrochloride]	< 5	200 to 1000	> 70		
COc1nc(N2CCC(F)CC2)c(F)cc1CNC(=O)[C@@H]1CCCN1 [Example 160, (2S)—N-[[5-Fluoro-6-(4-fluoro-1-piperidyl)-2-methoxy-3-pyridyl]methyl]-pyrrolidine-2-carboxamide; 2,2,2-trifluoroacetic Acid]	< 5	20 to 200	50 to 70		
COc1nc(N2CCCC(F)C2)c(F)cc1CNC(=O)[C@@H]1CCCN1 (stereo partly drawn) [Example 161, (2S)—N-[[5-Fluoro-6-(3-fluoro-1-piperidyl)-2-methoxy-3-pyridyl]methyl]-pyrrolidine-2-carboxamide; 2,2,2-trifluoroacetic Acid]	< 5	20 to 200	50 to 70		
COc1nc(N2CCC(F)C2)c(F)cc1CNC(=O)[C@@H]1CCCN1 (stereo partly drawn) [Example 162, (2S)—N-[[5-Fluoro-6-(3-Fluoropyrrolidin-1-yl)-2-methoxy-3-pyridyl]methyl]-pyrrolidine-2-carboxamide; 2,2,2-trifluoroacetic Acid]	5 to 50	20 to 200	50 to 70		
COc1nc(N2CCC(C(F)(F)F)C2)c(F)cc1CNC(=O)[C@@H]1CCCN1 (stereo partly drawn) [Example 163, (2S)—N-[[5-Fluoro-2-methoxy-6-[3-(trifluoromethyl)pyrrolidin-1-yl]-3-pyridyl]methyl]pyrrolidine-2-carboxamide; 2,2,2-trifluoroacetic Acid]	5 to 50	< 20	> 70		
COc1nc(N2CCC(F)(F)C2)c(F)cc1CNC(=O)[C@@H]1CCCN1 [Example 164, (2S)—N-[[6-(3,3-Difluoropyrrolidin-1-yl)-5-fluoro-2-methoxy-3-pyridyl]methyl]pyrrolidine-2-carboxamide; 2,2,2-trifluoroacetic Acid]	< 5	20 to 200	> 70		
COc1nc(N2CCC(F)(F)CC2)c(F)cc1CN(C)C(=O)[C@@H]1CCCN1 [Example 165, (2S)—N-[[6-(4,4-Difluoro-1-piperidyl)-5-fluoro-2-methoxy-3-pyridyl]methyl]-N-methyl-pyrrolidine-2-carboxamide; 2,2,2-trifluoroacetic Acid]	< 5	20 to 200	50 to 70		
